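Each compound was tested at five concentrations against cells in 96-well plates for 48 hours. Definition used: TGI = concentration required for complete inhibition of growth.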 Bounds are passed on as bounds.

This is an account of results in PubChem BioAssay (NCI).

One assay deals with M14 melanoma. The experiment in a line: growth of human tumour cells (NCI), 48 h.
`CCN1CCCc2cc3c(C(F)(F)F)cc(=O)oc3cc21` returned a TGI greater than 100 µM.

A further assay relates to SK-MEL-2 melanoma. The experiment in a line: growth of human tumour cells (NCI), 48 h.
As to `O=[N+]([O-])c1ccc(CSc2nncc3[nH]cnc23)cc1`, the TGI was greater than 100 µM.
Still for that read-out and setting: for `N#CSCC(Cl)=CCl` (mixture of isomers) the value was greater than 100 µM.
On to `CCN1CCCc2cc3c(C(F)(F)F)cc(=O)oc3cc21`, for which the TGI was greater than 100 µM.

For another assay, the system named is MOLT-4 leukemia. Nature of the assay: growth of human tumour cells (NCI), 48 h.
Molecule `CCCCCCCCCC[C@@H](OC(C)=O)[C@@H]1CC[C@@H]([C@@H]2CC[C@@H]([C@@H](O)CC#C/C=C/CCCCCCC[C@@]3(Sc4ccccc4)C[C@H](C)OC3=O)O2)O1` gave a TGI greater than 10 µM.
Molecule `O=[N+]([O-])c1ccc(CSc2nncc3[nH]cnc23)cc1` displayed a TGI greater than 100 µM.
Still for that read-out and setting: for `N#CSCC(Cl)=CCl` (mixture of isomers) the value was 97.5 µM; for `CCN1CCCc2cc3c(C(F)(F)F)cc(=O)oc3cc21`, greater than 100 µM.

The test system of another assay is NCI-H226 lung. Nature of the assay: growth of human tumour cells (NCI), 48 h.
On to `O=[N+]([O-])c1ccc(CSc2nncc3[nH]cnc23)cc1`, for which the TGI was greater than 100 µM.
The molecule `N#CSCC(Cl)=CCl` (mixture of isomers) registered a TGI greater than 100 µM.
As to `CCN1CCCc2cc3c(C(F)(F)F)cc(=O)oc3cc21`, the TGI was greater than 100 µM.

A further assay has as its system IGROV1 ovarian. The experiment in a line: growth of human tumour cells (NCI), 48 h.
The molecule `CCCCCCCCCC[C@@H](OC(C)=O)[C@@H]1CC[C@@H]([C@@H]2CC[C@@H]([C@@H](O)CC#C/C=C/CCCCCCC[C@@]3(Sc4ccccc4)C[C@H](C)OC3=O)O2)O1` displayed a TGI greater than 10 µM.
On the same count and under the same terms, the same measure for `O=[N+]([O-])c1ccc(CSc2nncc3[nH]cnc23)cc1`: greater than 100 µM; for `N#CSCC(Cl)=CCl` (mixture of isomers): greater than 100 µM.
With `CCN1CCCc2cc3c(C(F)(F)F)cc(=O)oc3cc21`, the TGI is greater than 100 µM.

In another assay the test system is COLO 205 colon. Nature of the assay: growth of human tumour cells (NCI), 48 h.
For `CCCCCCCCCC[C@@H](OC(C)=O)[C@@H]1CC[C@@H]([C@@H]2CC[C@@H]([C@@H](O)CC#C/C=C/CCCCCCC[C@@]3(Sc4ccccc4)C[C@H](C)OC3=O)O2)O1`, the TGI is greater than 10 µM.
In turn, `O=[N+]([O-])c1ccc(CSc2nncc3[nH]cnc23)cc1` gave a TGI greater than 100 µM.
The same measure, in the same setting: for `N#CSCC(Cl)=CCl` (mixture of isomers) the value was greater than 100 µM; for `CCN1CCCc2cc3c(C(F)(F)F)cc(=O)oc3cc21`, greater than 100 µM.

The test system of the next assay is OVCAR-4 ovarian. The experiment in a line: growth of human tumour cells (NCI), 48 h.
On to `O=[N+]([O-])c1ccc(CSc2nncc3[nH]cnc23)cc1`, for which the TGI is greater than 100 µM.
In turn, `N#CSCC(Cl)=CCl` (mixture of isomers) displayed a TGI greater than 100 µM.
Molecule `CCN1CCCc2cc3c(C(F)(F)F)cc(=O)oc3cc21` showed a TGI greater than 100 µM.

The next assay has as its system NCI/ADR-RES ovarian. The experiment in a line: growth of human tumour cells (NCI), 48 h.
In turn, `O=[N+]([O-])c1ccc(CSc2nncc3[nH]cnc23)cc1` registered a TGI greater than 100 µM.
For the molecule `N#CSCC(Cl)=CCl` (mixture of isomers), the TGI is greater than 100 µM.

In the next assay the test system is SK-OV-3 ovarian. Nature of the assay: growth of human tumour cells (NCI), 48 h.
As to `CCCCCCCCCC[C@@H](OC(C)=O)[C@@H]1CC[C@@H]([C@@H]2CC[C@@H]([C@@H](O)CC#C/C=C/CCCCCCC[C@@]3(Sc4ccccc4)C[C@H](C)OC3=O)O2)O1`, the TGI is greater than 10 µM.
On to `O=[N+]([O-])c1ccc(CSc2nncc3[nH]cnc23)cc1`, for which the TGI is greater than 100 µM.
Same read-out and setting: for `N#CSCC(Cl)=CCl` (mixture of isomers) the value was greater than 100 µM; for `CCN1CCCc2cc3c(C(F)(F)F)cc(=O)oc3cc21`, greater than 100 µM.

The test system of a further assay is NCI-H23 lung. The experiment in a line: growth of human tumour cells (NCI), 48 h.
`CCCCCCCCCC[C@@H](OC(C)=O)[C@@H]1CC[C@@H]([C@@H]2CC[C@@H]([C@@H](O)CC#C/C=C/CCCCCCC[C@@]3(Sc4ccccc4)C[C@H](C)OC3=O)O2)O1`: the TGI is greater than 10 µM.
As for `O=[N+]([O-])c1ccc(CSc2nncc3[nH]cnc23)cc1`, the TGI is greater than 100 µM.
In turn, `N#CSCC(Cl)=CCl` (mixture of isomers) displayed a TGI greater than 100 µM.
With `CCN1CCCc2cc3c(C(F)(F)F)cc(=O)oc3cc21`, the TGI is greater than 100 µM.

Another assay relates to NCI-H522 lung. Nature of the assay: growth of human tumour cells (NCI), 48 h.
`O=[N+]([O-])c1ccc(CSc2nncc3[nH]cnc23)cc1` yielded a TGI greater than 100 µM.
For the molecule `N#CSCC(Cl)=CCl` (mixture of isomers), the TGI was greater than 100 µM.
As to `CCN1CCCc2cc3c(C(F)(F)F)cc(=O)oc3cc21`, the TGI was greater than 100 µM.

A further assay relates to UACC-257 melanoma. The experiment in a line: growth of human tumour cells (NCI), 48 h.
As for `CCCCCCCCCC[C@@H](OC(C)=O)[C@@H]1CC[C@@H]([C@@H]2CC[C@@H]([C@@H](O)CC#C/C=C/CCCCCCC[C@@]3(Sc4ccccc4)C[C@H](C)OC3=O)O2)O1`, the TGI is greater than 10 µM.
The molecule `O=[N+]([O-])c1ccc(CSc2nncc3[nH]cnc23)cc1` returned a TGI greater than 100 µM.
In turn, `N#CSCC(Cl)=CCl` (mixture of isomers) yielded a TGI greater than 100 µM.
In turn, `CCN1CCCc2cc3c(C(F)(F)F)cc(=O)oc3cc21` returned a TGI greater than 100 µM.

For the next assay, the system named is A549 NSCLC. The experiment in a line: growth of human tumour cells (NCI), 48 h.
On to `CCCCCCCCCC[C@@H](OC(C)=O)[C@@H]1CC[C@@H]([C@@H]2CC[C@@H]([C@@H](O)CC#C/C=C/CCCCCCC[C@@]3(Sc4ccccc4)C[C@H](C)OC3=O)O2)O1`, for which the TGI is greater than 10 µM.
Still for that read-out and setting: the same measure for `O=[N+]([O-])c1ccc(CSc2nncc3[nH]cnc23)cc1`: greater than 100 µM; for `N#CSCC(Cl)=CCl` (mixture of isomers): greater than 100 µM; for `CCN1CCCc2cc3c(C(F)(F)F)cc(=O)oc3cc21`: greater than 100 µM.

The test system of a further assay is UACC-62 melanoma. The experiment in a line: growth of human tumour cells (NCI), 48 h.
As for `CCCCCCCCCC[C@@H](OC(C)=O)[C@@H]1CC[C@@H]([C@@H]2CC[C@@H]([C@@H](O)CC#C/C=C/CCCCCCC[C@@]3(Sc4ccccc4)C[C@H](C)OC3=O)O2)O1`, the TGI was greater than 10 µM.
The same measure, in the same setting: the same measure for `O=[N+]([O-])c1ccc(CSc2nncc3[nH]cnc23)cc1`: greater than 100 µM; for `N#CSCC(Cl)=CCl` (mixture of isomers): greater than 100 µM; for `CCN1CCCc2cc3c(C(F)(F)F)cc(=O)oc3cc21`: greater than 100 µM.

A further assay has as its system SF-295 CNS. The experiment in a line: growth of human tumour cells (NCI), 48 h.
`CCCCCCCCCC[C@@H](OC(C)=O)[C@@H]1CC[C@@H]([C@@H]2CC[C@@H]([C@@H](O)CC#C/C=C/CCCCCCC[C@@]3(Sc4ccccc4)C[C@H](C)OC3=O)O2)O1` gave a TGI greater than 10 µM.
On to `O=[N+]([O-])c1ccc(CSc2nncc3[nH]cnc23)cc1`, for which the TGI is greater than 100 µM.
Turning to `N#CSCC(Cl)=CCl` (mixture of isomers), the TGI was greater than 100 µM.
